These are literature values, as cited in patent publication US20250333447A1, “CHIMERIC SMALL MOLECULES FOR LABELING PROTEINS WITH IMMUNOGENIC MOIETIES AND METHODS OF USE THEREOF” (The Brigham and Women's Hospital, Inc., priority 2022, published 2025).

One series addresses PSMA (Homo sapiens, UniProt Q04609).
Another series concerns HSP90. To be noted: cell free assay.

PSMA, sequence (Q04609 whole entry, species assumed): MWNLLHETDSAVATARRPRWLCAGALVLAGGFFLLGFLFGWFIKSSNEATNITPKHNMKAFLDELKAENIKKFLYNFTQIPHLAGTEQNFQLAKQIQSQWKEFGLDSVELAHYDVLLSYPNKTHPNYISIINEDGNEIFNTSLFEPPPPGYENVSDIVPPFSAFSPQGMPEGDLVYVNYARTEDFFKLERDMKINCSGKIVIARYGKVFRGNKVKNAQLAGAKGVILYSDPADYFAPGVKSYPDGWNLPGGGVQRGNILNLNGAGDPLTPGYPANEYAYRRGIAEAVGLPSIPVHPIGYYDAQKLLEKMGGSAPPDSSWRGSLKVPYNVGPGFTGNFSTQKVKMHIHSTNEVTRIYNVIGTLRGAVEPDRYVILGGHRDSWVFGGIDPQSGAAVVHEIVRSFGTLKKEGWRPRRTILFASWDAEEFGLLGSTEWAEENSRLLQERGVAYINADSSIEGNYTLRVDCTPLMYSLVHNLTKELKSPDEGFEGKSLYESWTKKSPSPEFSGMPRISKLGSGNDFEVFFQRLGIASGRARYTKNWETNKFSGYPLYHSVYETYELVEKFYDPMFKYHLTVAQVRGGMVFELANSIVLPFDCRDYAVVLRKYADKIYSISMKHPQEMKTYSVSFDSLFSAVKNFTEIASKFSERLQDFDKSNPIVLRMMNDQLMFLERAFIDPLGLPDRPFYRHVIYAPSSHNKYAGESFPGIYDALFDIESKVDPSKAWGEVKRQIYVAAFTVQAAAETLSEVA

As for `O=C(O)CC[C@H](NC(=O)N[C@@H](CCC(=O)O)C(=O)O)C(=O)O` [DUPA], at PSMA, the inhibition constant Ki is 8 nM.

On to `CO[C@H]1/C=C\C=C(/C)C(=O)NC2=CC(=O)C(NCCN(C)C)=C(C[C@@H](C)C[C@H](OC)[C@H](O)[C@@H](C)/C=C(\C)[C@@H]1OC(N)=O)C2=O` [Alvespimycin], for which, in the series with HSP90, the IC50 is 62 nM.

In general, Ki refers to the dissociation constant of the complex between target and ligand, obtained from inhibition or displacement. Usually IC50 stands for the concentration at which inhibition is half-maximal.
